# Test results from patent US6297266A, “Thiazole derivatives” (Hoffmann-La Roche Inc., priority 1998, dated 2001).
# Target: T1, vitronectin receptor αvβ3 (Homo sapiens, UniProt P05106+P06756)
# T1 construct: Human placenta is stored at -80° C. immediately after its excision; from tissue; host or cells: human placenta
# Assay: inhibition of the binding of fibrinogen to vitronectin receptor αvβ3 (ELISA)
# Settings: fibrinogen binding to immobilized αvβ3 from human placenta, pH 7.4, read-out: VNR IC50
# Protocol: The inhibition of the binding of adhesive proteins such as e.g. fibrinogen to vitronectin receptors (such as e.g. αvβ3, αvβ5, αvβ6, αvβ8, etc. or to the fibrinogen receptor (αIIbβ3) by compounds of formula (I) can be determined as described by L. Alig et al. (J.Med.Chem. 1992, 35, 4393-4407).
# In detail thereto, the wells of microtiter plates (Nunc-Immunoplate MaxiSorp) were coated overnight at 4° C. with the vitronectin receptor αvβ3 (from human placenta, 100 μl/well) in a buffer system with 150 mmol/1 NaCl, 1 mmol/CaCl2, 1 mmol/1 MgCl2, 0.0005% Triton X-100 and 20 mmol/1 Tris HCl, pH 7.4. The non-specific binding sites were blocked by incubation with 3.5% bovine serum albumin (BSA from Fluka) at 20° C. for at least 1 h. Before the beginning of the test the plates were washed in each case once with 150 mmol/1 NaCl, 1 mmol/1 CaCl2, 1 mmol/1 MgCl2 and 20 mmol/1 Tris HCl, pH 7.4 (buffer A). The thus-coated plates can be stored for at least 2 months in the presence of 0.05% NaN3 (in buffer A) at 4° C. in a humidity chamber without loss of binding activity. Fibrinogen (IMCO, free from fibronectin) was diluted to 1.5 μg/ml in buffer A in the presence of 1% BSA. The wells coated with the receptor were incubated with fibrinogen (100 μl/well) overnight at room temperature in the absence of or in the presence of increasing concentrations of RGDS (as the reference substance, H-Arg-Gly-Asp-Ser-OH) or the compounds to be measured. Non-bound fibrinogen was removed by three-fold washing with buffer A, bound fibrinogen was detected by an enzyme linked immunosorbent assay (ELISA) procedure. Antibodies of rabbits directed against human fibrinogen (Dakopatts, Denmark), diluted in buffer A in the presence of 0.1% BSA, were added at room temperature for 1 h., followed by incubation with biotinylated antibodies directed against rabbit immunoglobulin (Amersham) for 30 min. […] After addition of the peroxidase substrate ABTS (2,2'-azino-bis(3-ethylbenzothiazoline-6-sulphonic acid), Boehringer Mannheim) the enzyme activity was measured with a multichannel photometer (UVmax, Molecular Devices). […]
# T1 sequence (P06756 31-889 limits assumed): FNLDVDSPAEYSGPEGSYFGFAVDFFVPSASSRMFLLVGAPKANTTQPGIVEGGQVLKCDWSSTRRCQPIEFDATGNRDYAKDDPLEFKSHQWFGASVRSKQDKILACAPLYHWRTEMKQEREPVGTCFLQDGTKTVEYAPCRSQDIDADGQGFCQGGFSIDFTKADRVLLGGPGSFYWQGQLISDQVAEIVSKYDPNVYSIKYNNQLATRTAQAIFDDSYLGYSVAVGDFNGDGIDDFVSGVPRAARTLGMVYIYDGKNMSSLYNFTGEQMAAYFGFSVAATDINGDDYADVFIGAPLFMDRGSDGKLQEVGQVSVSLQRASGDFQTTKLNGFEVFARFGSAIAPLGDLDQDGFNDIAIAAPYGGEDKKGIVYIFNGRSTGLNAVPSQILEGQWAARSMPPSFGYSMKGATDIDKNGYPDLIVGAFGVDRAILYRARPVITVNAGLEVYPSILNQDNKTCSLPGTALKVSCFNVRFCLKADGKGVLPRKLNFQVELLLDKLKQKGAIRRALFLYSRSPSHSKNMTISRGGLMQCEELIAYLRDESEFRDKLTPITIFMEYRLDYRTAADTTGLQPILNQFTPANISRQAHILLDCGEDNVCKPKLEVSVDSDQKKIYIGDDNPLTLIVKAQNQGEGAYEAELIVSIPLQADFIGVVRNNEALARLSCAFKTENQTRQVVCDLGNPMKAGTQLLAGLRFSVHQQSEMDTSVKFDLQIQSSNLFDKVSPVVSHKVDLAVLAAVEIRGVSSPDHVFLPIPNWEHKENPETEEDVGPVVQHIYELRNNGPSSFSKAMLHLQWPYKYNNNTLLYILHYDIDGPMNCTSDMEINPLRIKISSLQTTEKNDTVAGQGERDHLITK
# T1 sequence (P06756 891-1048 limits assumed): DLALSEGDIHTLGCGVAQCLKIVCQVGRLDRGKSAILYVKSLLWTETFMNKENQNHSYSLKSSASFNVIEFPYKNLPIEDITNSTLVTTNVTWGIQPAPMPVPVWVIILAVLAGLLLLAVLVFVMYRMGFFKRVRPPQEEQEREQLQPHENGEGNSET
# T1 sequence (P05106 27-788): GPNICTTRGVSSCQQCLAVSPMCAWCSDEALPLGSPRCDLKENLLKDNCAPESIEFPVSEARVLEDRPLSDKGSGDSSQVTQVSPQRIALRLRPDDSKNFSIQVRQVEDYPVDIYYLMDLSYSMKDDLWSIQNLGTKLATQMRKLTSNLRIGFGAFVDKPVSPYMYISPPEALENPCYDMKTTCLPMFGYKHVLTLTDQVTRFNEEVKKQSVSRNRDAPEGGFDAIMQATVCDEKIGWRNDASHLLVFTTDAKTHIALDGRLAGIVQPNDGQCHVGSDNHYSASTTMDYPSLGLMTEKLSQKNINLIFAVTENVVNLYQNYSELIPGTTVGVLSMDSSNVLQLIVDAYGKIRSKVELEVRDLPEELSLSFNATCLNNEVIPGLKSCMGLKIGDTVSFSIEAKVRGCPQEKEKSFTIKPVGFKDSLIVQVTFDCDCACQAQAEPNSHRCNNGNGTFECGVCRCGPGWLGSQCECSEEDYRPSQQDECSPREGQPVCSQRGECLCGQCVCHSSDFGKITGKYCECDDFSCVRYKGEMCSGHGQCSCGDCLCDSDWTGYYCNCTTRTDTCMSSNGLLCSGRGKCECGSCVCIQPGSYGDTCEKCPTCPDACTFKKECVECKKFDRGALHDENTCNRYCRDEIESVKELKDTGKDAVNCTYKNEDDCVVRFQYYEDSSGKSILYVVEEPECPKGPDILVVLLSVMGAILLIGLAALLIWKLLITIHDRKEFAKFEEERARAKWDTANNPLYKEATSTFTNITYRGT
row,IC50 [nM],Compound
1,1.3,O=C(O)COc1ccc(NC(=O)c2csc(NC(=O)NCc3ccccc3)n2)cc1C(=O)O [5-{[2-(3-benzyl-ureido)-thiazole-4-carbonyl]-amino}-2-carboxymethoxy-benzoic acid]
2,0.2,COc1cc(NC(=O)c2csc(NC(=O)NCc3ccccc3)n2)ccc1OCC(=O)O [(4-{[2-(3-benzyl-ureido)-thiazole-4-carbonyl]-amino}-2-methoxy-phenoxy)-acetic acid]
3,1,O=C(O)COc1ccc(NC(=O)c2csc(NC(=O)NCc3ccccc3)n2)cc1 [[4-[[2-(3-benzyl-ureido)-thiazole-4-carbonyl]-amino]-phenoxy]-acetic acid]
